Measurements from patent US11273250B2, “Devices, systems, and methods for excavating cancer cells” (GEORGIA TECH RESEARCH CORPORATION, priority 2010, dated 2022).

What was measured:
[1] = tested on: Healthy cells (e.g., neurons and glia); assay: Effect of cyclopamine exposure on healthy cells; format: cell-based
Procedure: (§1) The smoothened inhibitor, cyclopamine, was evaluated to determine the effective drug concentration required to induce apoptosis in tumor cells. The viability of the tumors cells was measured at different concentrations of cyclopamine. Healthy cells (e.g., neurons and glia) were not affected by exposure to the drug.

tumor cells = assay: Viability of tumor cells at different concentrations of cyclopamine; format: cell-based; conditions: concentration suggested for conjugation to the collagen hydrogel scaffold
Procedure: as §1

CC1=C2C[C@H]3[C@@H](CC=C4C[C@@H](O)CC[C@@]43C)[C@@H]2CC[C@]12O[C@@H]1C[C@H](C)CN[C@H]1[C@H]2C [cyclopamine]
effect of exposure to the drug on healthy cells [1]: not affected | effective drug concentration required to induce apoptosis in tumor cells (tumor cells): 30 µM
